In BindingDB's records for doi:10.1021/jm960097t (Duquesne University, 1996):

Key:
[1] = target: Thymidylate synthase (Streptococcus faecium); assay: The inhibitory concentration of compound was evaluated on Streptococcus faecium Thymidylate synthase
[2] = target: Thymidylate synthase (Pneumocystis carinii); assay: The inhibitory concentration of compound was evaluated on Pneumocystis carini Thymidylate synthase

IC50 [1] | IC50 [2] | SMILES
> 25 µM |  | Cc1[nH]c2nc(N)[nH]c(=O)c2c1Sc1ccc2ccccc2c1 [2-Amino-6-methyl-5-(naphthalen-2-ylsulfanyl)-3,7-dihydro-pyrrolo[2,3-d]pyrimidin-4-one]
29 µM |  | Cc1[nH]c2nc(N)[nH]c(=O)c2c1Sc1ccncc1 [2-Amino-6-methyl-5-(pyridin-4-ylsulfanyl)-3,7-dihydro-pyrrolo[2,3-d]pyrimidin-4-one]
> 30 µM | 60 µM | Cc1[nH]c2nc(N)[nH]c(=O)c2c1Sc1ccccc1 [2-Amino-6-methyl-5-phenylsulfanyl-3,7-dihydro-pyrrolo[2,3-d]pyrimidin-4-one]
